According to patent US8580794B2 (AbbVie Inc., priority 2009, dated 2013):
Read-outs that look alike come from different tables or passages of the source.

Key:
RS4;11 cells = assay: RS4;11 Cell Viability Assay (CellTiter Glo); type: cell-based; details: 10% human serum;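 note: RS4,11 acute lymphoblastic leukemia cells, viability as percent of untreated control cells, EC50 for loss of viable cells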
Protocol: The acute lymphoblastic leukemia (ALL) cell line RS4;11 was used as the primary human cell line to assess the cellular activity of Bcl-2 selective agents in vitro and their efficacy in vivo.
Cell cytotoxicity EC50 values were assessed using CellTiter Glo (Promega) according to the manufacturer's recommendations. The EC50 values were determined as a percentage of viable cells following treatment compared to the untreated control cells.

GST-Bc1-2 = GST-Bc1-2 (Homo sapiens, UniProt P10415); assay: Time Resolved-Fluorescence Resonance Energy Transfer (TR-FRET) Bcl-2 binding assay with F-Bak peptide probe
[1] = Homo sapiens, RS4-11, 48 h, 50,000 cells per well
[2] = GST-Bcl-2 1 nM, F-Bak probe 100 nM, Tb-anti-GST 1 nM, '<' = below limit of detection, read-out: TR-FRET Bcl-2 Binding Ki

Sequence of GST-Bc1-2 (P10415 whole entry): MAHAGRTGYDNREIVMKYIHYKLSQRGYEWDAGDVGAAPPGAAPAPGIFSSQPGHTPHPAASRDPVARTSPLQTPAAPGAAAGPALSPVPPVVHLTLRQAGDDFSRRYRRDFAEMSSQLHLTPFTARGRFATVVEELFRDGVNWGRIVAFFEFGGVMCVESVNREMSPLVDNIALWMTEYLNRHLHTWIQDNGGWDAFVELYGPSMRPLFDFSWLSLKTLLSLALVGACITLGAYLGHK

## CC1(C)CCC(CN2CCN(c3ccc(C(=O)NS(=O)(=O)c4cnc(OCC5CCC6(CC5)CNC(=O)O6)c(Cl)c4)c(Oc4cnc5[nH]ccc5c4)c3)CC2)=C(c2ccc(Cl)cc2)C1 (single isomer, unassigned) [Example 396, N-[(5-chloro-6-{[(5r,8r)-2-oxo-1-oxa-3-azaspiro[4.5]dec-8-yl]methoxy}pyridin-3-yl)sulfonyl]-4-(4-{[2-(4-chlorophenyl)-4,4-dimethylcyclohex-1-en-1-yl]methyl}piperazin-1-yl)-2-(1H-pyrrolo[2,3-b]pyridin-5-yloxy)benzamide]
RS4;11 cells; [1]
  EC50: 84.1 nM
GST-Bc1-2; [2]
  Ki: 0.014 nM

## CC1(C)CCC(CN2CCN(c3ccc(C(=O)NS(=O)(=O)c4cnc(OCC5CCC6(CC5)CNC(=O)O6)c(Cl)c4)c(Oc4cnc5[nH]ccc5c4)c3)CC2)=C(c2ccc(Cl)cc2)C1 (single isomer, unassigned) [Example 397, N-[(5-chloro-6-{[(5s,8s)-2-oxo-1-oxa-3-azaspiro[4.5]dec-8-yl]methoxy}pyridin-3-yl)sulfonyl]-4-(4-{[2-(4-chlorophenyl)-4,4-dimethylcyclohex-1-en-1-yl]methyl}piperazin-1-yl)-2-(1H-pyrrolo[2,3-b]pyridin-5-yloxy)benzamide]
RS4;11 cells; 50,000 cells per well, 48 hours
  EC50: 113 nM
GST-Bc1-2; [2]
  Ki: 0.041 nM

## CC1(C)CCC(CN2CCN(c3ccc(C(=O)NS(=O)(=O)c4cnc(NC5CCN(C6CCOCC6)CC5)c(Br)c4)c(Oc4cnc5[nH]ccc5c4)c3)CC2)=C(c2ccc(Cl)cc2)C1 [Example 61, N-({5-bromo-6-[(1-tetrahydro-2H-pyran-4-ylpiperidin-4-yl)amino]pyridin-3-yl}sulfonyl)-4-(4-{[2-(4-chlorophenyl)-4,4-dimethylcyclohex-1-en-1-yl]methyl}piperazin-1-yl)-2-(1H-pyrrolo[2,3-b]pyridin-5-yloxy)benzamide]
RS4;11 cells; [1]
  EC50: 183 nM
GST-Bc1-2; [2]
  Ki: 0.091 nM

## O=C(NS(=O)(=O)c1ccc(NCC2CCOCC2)c([N+](=O)[O-])c1)c1ccc(N2CCN(Cc3ccccc3-c3ccc(Cl)cc3)CC2)cc1Oc1ccc2[nH]ccc2c1 [Example 87, 4-{4-[(4′-chloro-1,1′-biphenyl-2-yl)methyl]piperazin-1-yl}-2-(1H-indol-5-yloxy)-N-({3-nitro-4-[(tetrahydro-2H-pyran-4-ylmethyl)amino]phenyl}sulfonyl)benzamide]
RS4;11 cells; [1]
  EC50: 1180 nM
GST-Bc1-2; [2]
  Ki: 0.618 nM
GST-Bc1-2; read-out: Bcl-2 FRET ki
  Ki: 0.618 nM

## CC1(C)CCC(CN2CCN(c3ccc(C(=O)NS(=O)(=O)c4ccc(NN5CCS(=O)(=O)CC5)c([N+](=O)[O-])c4)c(Oc4cnc5[nH]ccc5c4)c3)CC2)=C(c2ccc(Cl)cc2)C1 [Example 107, Trans-4-(4-{[2-(4-chlorophenyl)-4,4-dimethylcyclohex-1-en-1-yl]methyl}piperazin-1-yl)-N-({4-[(1,1-dioxidothiomorpholin-4-yl)amino]-3-nitrophenyl}sulfonyl)-2-(1H-pyrrolo[2,3-b]pyridin-5-yloxy)benzamide]
RS4;11 cells; [1]
  EC50: 61.2 nM
GST-Bc1-2; [2]
  Ki: 0.035 nM

## CC1(C)CCC(CN2CCN(c3ccc(C(=O)NS(=O)(=O)c4ccc(N[C@@H]5CCN(CCF)C5)c([N+](=O)[O-])c4)c(Oc4cnc5[nH]ccc5c4)c3)CC2)=C(c2ccc(Cl)cc2)C1 [Example 183, 4-(4-{[2-(4-chlorophenyl)-4,4-dimethylcyclohex-1-en-1-yl]methyl}piperazin-1-yl)-N-[(4-{[(3R)-1-(2-fluoroethyl)pyrrolidin-3-yl]amino}-3-nitrophenyl)sulfonyl]-2-(1H-pyrrolo[2,3-b]pyridin-5-yloxy)benzamide]
RS4;11 cells; [1]
  EC50: 17.5 nM
GST-Bc1-2; [2]
  Ki: < 0.01 nM

## CC1(O)CCC(COc2ncc(S(=O)(=O)NC(=O)c3ccc(N4CCN(CC5=C(c6ccc(Cl)cc6)CC6(CC5)CC6)CC4)cc3Oc3cnc4[nH]ccc4c3)cc2Cl)CC1 (stereo not drawn) [Example 341, N-({5-chloro-6-[(trans-4-hydroxy-4-methylcyclohexyl)methoxy]pyridin-3-yl}sulfonyl)-4-(4-{[5-(4-chlorophenyl)spiro[2.5]oct-5-en-6-yl]methyl}piperazin-1-yl)-2-(1H-pyrrolo[2,3-b]pyridin-5-yloxy)benzamide]
RS4;11 cells; [1]
  EC50: 31.7 nM

## CC1(C)CCC(CN2CCN(c3ccc(C(=O)NS(=O)(=O)c4ccc(OCC5CCC(C)(O)CC5)c(Cl)c4)c(Oc4cnc5[nH]ccc5c4)c3)CC2)=C(c2ccc(Cl)cc2)C1 (stereo not drawn) [Example 362, N-({3-chloro-4-[(trans-4-hydroxy-4-methylcyclohexyl)methoxy]phenyl}sulfonyl)-4-(4-{[2-(4-chlorophenyl)-4,4-dimethylcyclohex-1-en-1-yl]methyl}piperazin-1-yl)-2-(1H-pyrrolo[2,3-b]pyridin-5-yloxy)benzamide]
RS4;11 cells; [1]
  EC50: 31.7 nM

## [2H]C1([2H])N(CC2=C(c3ccc(Cl)cc3)CC(C)(C)CC2)C([2H])([2H])C([2H])([2H])N(c2ccc(C(=O)NS(=O)(=O)c3ccc(NCC4CCOCC4)c([N+](=O)[O-])c3)c(Oc3cnc4[nH]ccc4c3)c2)C1([2H])[2H] [Example 369, 4-[4-{[2-(4-chlorophenyl)-4,4-dimethylcyclohex-1-en-1-yl]methyl}(2H8)piperazin-1-yl]-N-({3-nitro-4-[(tetrahydro-2H-pyran-4-ylmethyl)amino]phenyl}sulfonyl)-2-(1H-pyrrolo[2,3-b]pyridin-5-yloxy)benzamide]
RS4;11 cells; [1]
  EC50: 8 nM

## COC(=O)[C@H]1CC[C@H](CNc2ccc(S(=O)(=O)NC(=O)c3ccc(N4CCN(CC5=C(c6ccc(Cl)cc6)CC(C)(C)CC5)CC4)cc3Oc3cnc4[nH]ccc4c3)cc2[N+](=O)[O-])CC1 [Example 379, methyl trans-4-{[(4-{[4-(4-{[2-(4-chlorophenyl)-4,4-dimethylcyclohex-1-en-1-yl]methyl}piperazin-1-yl)-2-(1H-pyrrolo[2,3-b]pyridin-5-yloxy)benzoyl]sulfamoyl}-2-nitrophenyl)amino]methyl}cyclohexanecarboxylate]
RS4;11 cells; [1]
  EC50: 19.4 nM
GST-Bc1-2; [2]
  Ki: < 0.01 nM

## CC1(C)CCC(CN2CCN(c3ccc(C(=O)NS(=O)(=O)c4ccc(NC[C@H]5CC[C@H](C(=O)O)CC5)c([N+](=O)[O-])c4)c(Oc4cnc5[nH]ccc5c4)c3)CC2)=C(c2ccc(Cl)cc2)C1 [Example 380, trans-4-{[(4-{[4-(4-{[2-(4-chlorophenyl)-4,4-dimethylcyclohex-1-en-1-yl]methyl}piperazin-1-yl)-2-(1H-pyrrolo[2,3-b]pyridin-5-yloxy)benzoyl]sulfamoyl}-2-nitrophenyl)amino]methyl}cyclohexanecarboxylic acid]
RS4;11 cells; [1]
  EC50: 134 nM
GST-Bc1-2; [2]
  Ki: < 0.01 nM

## CC1(C)CCC(CN2CCN(c3ccc(C(=O)NS(=O)(=O)c4ccc(NC(=O)N5CCC(C#N)CC5)c([N+](=O)[O-])c4)c(Oc4cnc5[nH]ccc5c4)c3)CC2)=C(c2ccc(Cl)cc2)C1 [Example 381, N-(4-{[4-(4-{[2-(4-chlorophenyl)-4,4-dimethylcyclohex-1-en-1-yl]methyl}piperazin-1-yl)-2-(1H-pyrrolo[2,3-b]pyridin-5-yloxy)benzoyl]sulfamoyl}-2-nitrophenyl)-4-cyanopiperidine-1-carboxamide]
RS4;11 cells; [1]
  EC50: 1.41 nM
GST-Bc1-2; [2]
  Ki: < 0.01 nM

## COC[C@H]1CC[C@@H](CNc2ccc(S(=O)(=O)NC(=O)c3ccc(N4CCN(CC5=C(c6ccc(Cl)cc6)CC(C)(C)CC5)CC4)cc3Oc3cnc4[nH]ccc4c3)cc2[N+](=O)[O-])CC1 [Example 382, 4-(4-{[2-(4-chlorophenyl)-4,4-dimethylcyclohex-1-en-1-yl]methyl}piperazin-1-yl)-N-{[4-({[cis-4-(methoxymethyl)cyclohexyl]methyl}amino)-3-nitrophenyl]sulfonyl}-2-(1H-pyrrolo[2,3-b]pyridin-5-yloxy)benzamide]
RS4;11 cells; [1]
  EC50: 27 nM
GST-Bc1-2; [2]
  Ki: < 0.01 nM

## COC[C@H]1CC[C@H](CNc2ccc(S(=O)(=O)NC(=O)c3ccc(N4CCN(CC5=C(c6ccc(Cl)cc6)CC(C)(C)CC5)CC4)cc3Oc3cnc4[nH]ccc4c3)cc2[N+](=O)[O-])CC1 [Example 383, 4-(4-{[2-(4-chlorophenyl)-4,4-dimethylcyclohex-1-en-1-yl]methyl}piperazin-1-yl)-N-{[4-({[trans-4-(methoxymethyl)cyclohexyl]methyl}amino)-3-nitrophenyl]sulfonyl}-2-(1H-pyrrolo[2,3-b]pyridin-5-yloxy)benzamide]
RS4;11 cells; [1]
  EC50: 12.4 nM
GST-Bc1-2; [2]
  Ki: < 0.01 nM

## CC1(C)CCC(CN2CCN(c3ccc(C(=O)NS(=O)(=O)c4ccc5c(c4)nnn5CC4CCOCC4)c(Oc4cnc5[nH]ccc5c4)c3)CC2)=C(c2ccc(Cl)cc2)C1 [Example 384, 4-(4-{[2-(4-chlorophenyl)-4,4-dimethylcyclohex-1-en-1-yl]methyl}piperazin-1-yl)-2-(1H-pyrrolo[2,3-b]pyridin-5-yloxy)-N-{[1-(tetrahydro-2H-pyran-4-ylmethyl)-1H-benzotriazol-5-yl]sulfonyl}benzamide]
RS4;11 cells; [1]
  EC50: > 1000 nM
GST-Bc1-2; [2]
  Ki: 0.704 nM

## CC1(C)CCC(CN2CCN(c3ccc(C(=O)NS(=O)(=O)c4cnc(OCC5CCC6(CC5)CNC(=O)O6)c(Cl)c4)c(Oc4cnc5[nH]ccc5c4)c3)CC2)=C(c2ccc(Cl)cc2)C1 (stereo not shown) [Example 385, N-({5-chloro-6-[(2-oxo-1-oxa-3-azaspiro[4.5]dec-8-yl)methoxy]pyridin-3-yl}sulfonyl)-4-(4-{[2-(4-chlorophenyl)-4,4-dimethylcyclohex-1-en-1-yl]methyl}piperazin-1-yl)-2-(1H-pyrrolo[2,3-b]pyridin-5-yloxy)benzamide]
RS4;11 cells; [1]
  EC50: 133 nM
GST-Bc1-2; [2]
  Ki: < 0.01 nM

## COC1CCN(C(=O)Nc2ccc(S(=O)(=O)NC(=O)c3ccc(N4CCN(CC5=C(c6ccc(Cl)cc6)CC(C)(C)CC5)CC4)cc3Oc3cnc4[nH]ccc4c3)cc2[N+](=O)[O-])CC1 [Example 386, N-(4-{[4-(4-{[2-(4-chlorophenyl)-4,4-dimethylcyclohex-1-en-1-yl]methyl}piperazin-1-yl)-2-(1H-pyrrolo[2,3-b]pyridin-5-yloxy)benzoyl]sulfamoyl}-2-nitrophenyl)-4-methoxypiperidine-1-carboxamide]
RS4;11 cells; [1]
  EC50: 8.38 nM
GST-Bc1-2; [2]
  Ki: < 0.01 nM

## Cc1nc2c(s1)CC(COc1ncc(S(=O)(=O)NC(=O)c3ccc(N4CCN(CC5=C(c6ccc(Cl)cc6)CC(C)(C)CC5)CC4)cc3Oc3cnc4[nH]ccc4c3)cc1Cl)CC2 (stereo not shown) [Example 387]
RS4;11 cells; [1]
  EC50: 911 nM
GST-Bc1-2; [2]
  Ki: < 0.01 nM
